Measured values: article PMC12459314, “Subcutaneous administration of a novel TRPM8 antagonist reverses cold hypersensitivity while attenuating the drop in core body temperature” (British journal of pharmacology, 2024)
Where “and” joins values, the source holds several entries; their conditions need not be identical. Identical values can stand only once.

How the values were obtained:
TRPM8 = system: TRPM8; parameters: method as in Journigan et al., 2020; settings: 30 mg·kg−1, s.c.; ref Journigan et al., 2020; cited from earlier work
human TRPA1 = molecular target: T1, human TRPA1 (Homo sapiens, UniProt O75762); test: FlexStation Ca2+ flux assay in HEK293T cells transfected with human TRPA1; format: cell-based
T1 construct: expressed in transfected cells; host or cells: HEK293T
Protocol: (§1) The human embryonic kidney cell line (HEK293T, CRL-1573, RRID: CVCL_0045) was purchased from the American Type Culture Collection (Manassas, USA) and was maintained in Dulbecco’s Minimal Essential Medium (DMEM, Cellgro10013CV, Corning, Tewksbury, USA) that was supplemented with 10% fetal bovine serum (Gemini Bio-products), 2-mM L-glutamine (Invitrogen) and 100 U/mL penicillin and streptomycin (Invitrogen) and cultured in an incubator at 37°C, 5% CO2 and 95% humidity. Human TRPV1 and TRPA1 plasmid DNA (gift from D. Julius) were transiently bulk transfected individually into HEK293T cells using the FuGene HD transfection reagent (TFR, Promega, Madison, WI, USA) at a 3:1 ratio (TFR:DNA). Transfected cells were seeded at 10,000 cells per well in a volume of 25 μl into black walled collagen coated 384-well microtiter plates and cultured in an incubator at 37°C, 5% CO2 and 95% humidity for 48 h prior to the initiation of calcium mobilization experiments performed on a FlexStation 3 (Molecular Devices, Sunnyvale, CA, USA) platform equipped with a 16-channel robotic pipettor head and FLIPR tetra pipette tips. At 46 h post transfection, cell monolayers were preloaded with 25 μl of the FLIPR Calcium 6 dye (Molecular Devices) for 2 h in an incubator at 37°C, 5% CO2 and 95% humidity according to the manufacturer’s instructions. The plate was transferred to a FlexStation 3 microplate reader. Relative fluorescence units (RFUs) (Ex. 485 nm, Em 525 nm) were then acquired at 37°C in the kinetic mode. The run time for the agonist (1st) and antagonist (2nd) reads were 60 s each, for a total run time of 120 s, with an interval of 3.1 s between reads in the same well to allow all 16 wells in a column to be read sequentially, and the photomultiplier tube (PMT) level was set at medium, with 6 flashes per read. Baseline Fluo-6 RFUs were acquired for 18 s prior to the addition of compound in both the agonist and antagonist reads. For the first addition agonist read, the volume in the well was 50 μl, the pipette height was set at 40 μl, and 12.5 μl of the test compound was delivered at a speed of 2 μl·s^−1 after the baseline RFU’s acquisition period at 19 s, and the RFUs were acquired for an additional 41 s. For the second addition antagonist read, the volume in the well was 62.5 μl, the pipette height was set at 40 μl, and 12.5 μl of an EC80 agonist concentration was delivered at a speed of 2 μl/s after the baseline RFU’s acquisition period at 19 s, and the RFUs were acquired for an additional 41 s. The FlexStation 3 instrument settings, automated pipetting and data collection were all controlled by the SoftMax Pro software, version 7.1.2.
To analyse the agonist and antagonist Ca^2+ mobilization Fluo-6 RFU’s kinetic data, the RFU’s readings acquired throughout the 60-s acquisition period for each individual well were divided by the average RFU values acquired during the first 18-s baseline acquisition period from the same well to calculate a fold over baseline (FOB) ratio.

human TRPV1 = molecular target: T2, human TRPV1 (Homo sapiens, UniProt Q8NER1); test: FlexStation Ca2+ flux assay in HEK293T cells transfected with human TRPV1; format: cell-based
T2 construct: expressed in transfected cells; host or cells: HEK293T
Protocol: as §1, with “Transfected cells were seeded at 10,000 cells per well in a volume of 25 μl into black walled collagen coated 384-well microtiter plates and cultured in an incubator at 37°C, 5% CO2 and 95% humidity for 48 h prior to the initiation of calcium mobilization experiments performed on a FlexStation 3 (Molecular Devices, Sunnyvale, CA, USA) platform equipped with a 16-channel robotic pipettor head and FLIPR tetra pipette tips. At 46 h post transfection, cell monolayers were preloaded with 25 μl of the FLIPR Calcium 6 dye (Molecular Devices) for 2 h in an incubator at 37°C, 5% CO2 and 95% humidity according to the manufacturer’s instructions.” left out, “The FlexStation 3 instrument settings, automated pipetting and data collection were all controlled by the SoftMax Pro software, version 7.1.2.” left out

[1] = Core body temperature by radiotelemetry after i.c.v. administration; format: in vivo, mouse; settings: 306 nmol per 1 μL i.c.v.
Protocol: A second set of male C57Bl6J mice (Jackson Laboratories, n = 8) was implanted with telemetry as described above and a 26-gauge brain cannula (Plastics One) targeted at the lateral ventricle using coordinates relative to Bregma: 0.3 mm caudal, 1.0 mm lateral, 3.0 mm ventral. This second procedure was also performed under isoflurane anesthesia. The brain cannula was secured to the skull with two screws and dental cement. Animals were treated with buprenex (0.05 mg·kg^−1, s.c. every 8 h for 48 h) and enrofloxacin (2 mg·kg^−1, s.c.), singly housed and handled daily as described above. A single i.c.v. injection was performed every other day in a randomized order and included: (1) Galanin-like peptide (3 nmol/1 μL), (2) VBJ103 (306 nmol/1 μL) and (3) VBJ103 vehicle (1 μL). Galanin-like peptide produced a decrease in body temperature in five of eight mice. Therefore, body temperature data in response to VBJ103 and vehicle are presented in these five mice. These studies were carried out with a single dose of VBJ103 (306 nmol/1 μL or ~4 mg·kg^−1), which was the highest dose achievable due to constraints of the injection volume and the solubility of VBJ103.

T1 sequence (O75762 whole entry): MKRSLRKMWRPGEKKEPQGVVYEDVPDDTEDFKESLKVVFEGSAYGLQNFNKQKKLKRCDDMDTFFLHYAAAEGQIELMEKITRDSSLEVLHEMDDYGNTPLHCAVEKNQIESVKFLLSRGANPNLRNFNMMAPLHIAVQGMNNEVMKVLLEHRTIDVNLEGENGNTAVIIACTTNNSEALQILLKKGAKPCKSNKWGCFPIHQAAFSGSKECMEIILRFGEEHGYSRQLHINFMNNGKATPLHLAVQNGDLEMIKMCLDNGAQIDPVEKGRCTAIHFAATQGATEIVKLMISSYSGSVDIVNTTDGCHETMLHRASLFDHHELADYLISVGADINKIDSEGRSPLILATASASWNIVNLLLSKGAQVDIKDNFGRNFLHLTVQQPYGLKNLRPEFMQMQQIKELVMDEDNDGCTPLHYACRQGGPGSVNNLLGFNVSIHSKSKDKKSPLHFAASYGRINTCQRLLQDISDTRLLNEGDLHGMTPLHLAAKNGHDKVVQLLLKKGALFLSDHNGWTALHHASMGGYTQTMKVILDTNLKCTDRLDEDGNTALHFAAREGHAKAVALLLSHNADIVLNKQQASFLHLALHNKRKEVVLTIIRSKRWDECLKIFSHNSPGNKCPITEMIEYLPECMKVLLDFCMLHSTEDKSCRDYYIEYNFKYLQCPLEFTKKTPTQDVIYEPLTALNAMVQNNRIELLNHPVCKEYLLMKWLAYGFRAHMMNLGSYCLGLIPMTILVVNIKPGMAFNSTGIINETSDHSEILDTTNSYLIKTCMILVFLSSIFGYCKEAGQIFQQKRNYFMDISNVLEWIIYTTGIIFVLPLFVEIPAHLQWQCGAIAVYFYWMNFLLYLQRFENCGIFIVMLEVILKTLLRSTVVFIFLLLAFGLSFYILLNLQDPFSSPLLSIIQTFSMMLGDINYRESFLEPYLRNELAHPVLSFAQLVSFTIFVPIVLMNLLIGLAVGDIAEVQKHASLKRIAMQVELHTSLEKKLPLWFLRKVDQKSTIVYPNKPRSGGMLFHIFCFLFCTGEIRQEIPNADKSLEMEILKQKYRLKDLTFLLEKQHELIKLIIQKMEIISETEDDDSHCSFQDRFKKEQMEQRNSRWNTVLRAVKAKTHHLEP
T2 sequence (Q8NER1 whole entry): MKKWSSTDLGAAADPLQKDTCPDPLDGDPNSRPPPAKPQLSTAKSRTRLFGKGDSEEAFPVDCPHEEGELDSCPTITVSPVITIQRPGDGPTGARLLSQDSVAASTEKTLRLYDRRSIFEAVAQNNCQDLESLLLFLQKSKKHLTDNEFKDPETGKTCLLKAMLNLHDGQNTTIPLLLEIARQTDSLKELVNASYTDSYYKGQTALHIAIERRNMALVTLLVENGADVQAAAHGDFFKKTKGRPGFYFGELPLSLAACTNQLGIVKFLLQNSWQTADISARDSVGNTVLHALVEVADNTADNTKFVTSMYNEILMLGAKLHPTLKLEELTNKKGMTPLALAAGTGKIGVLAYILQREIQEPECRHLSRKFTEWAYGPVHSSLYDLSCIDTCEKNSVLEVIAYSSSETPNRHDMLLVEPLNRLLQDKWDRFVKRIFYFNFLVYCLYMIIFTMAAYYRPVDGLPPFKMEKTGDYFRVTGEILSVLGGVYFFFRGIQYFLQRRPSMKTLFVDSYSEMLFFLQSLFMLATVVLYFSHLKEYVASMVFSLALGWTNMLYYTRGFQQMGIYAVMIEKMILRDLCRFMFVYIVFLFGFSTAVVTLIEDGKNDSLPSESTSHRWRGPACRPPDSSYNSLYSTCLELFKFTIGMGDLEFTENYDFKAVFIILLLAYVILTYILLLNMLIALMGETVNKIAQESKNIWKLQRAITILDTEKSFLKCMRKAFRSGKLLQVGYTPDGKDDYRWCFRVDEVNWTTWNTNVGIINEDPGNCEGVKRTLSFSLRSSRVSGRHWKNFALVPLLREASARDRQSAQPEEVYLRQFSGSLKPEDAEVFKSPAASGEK

Structure (SMILES): O=C(NC1CCC2(CCCC2)CC1)c1ccc(-c2ccccc2)cc1 [VBJ103, N-(Spiro[4.5]decan-8-yl)-[1,1′-biphenyl]-4-carboxamide]
- icilin-induced wet dog shaking (WDS) behaviour (TRPM8): suppresses
- EC50 (human TRPA1; Figure 1g experiment, without HC-030031): 960 nM and 955 nM
- antagonist activity at TRPA1 (human TRPA1; against an EC80 concentration (10 μM) of AITC): no detectable antagonist activity
- EC50 (human TRPA1; agonist read): 1040 nM and > 1000 nM
- shift in TRPA1 EC50 (human TRPA1; with versus without HC-030031 (10 μM)): 3.2 fold
- agonist activity at TRPV1 (human TRPV1; compound alone): no apparent agonist activity
- inhibition of the Ca2+ signal at TRPV1 (human TRPV1; evoked with an EC80 concentration (0.1 μM) of capsaicin): Nor was there a detectable inhibition
- change in CBT compared to vehicle [1]: did not significantly (P > 0.05) alter
